Source: patent US20110191897A1, “Plants Tolerant to HPPD Inhibitor Herbicides” (Bayer CropScience AG, priority 2009, published 2011)
Where “and” joins values, the source holds several entries; their conditions need not be identical. Equal entries are not always repeated.

Experiments:
[1] = system: T1 tobacco plants with FMP37e coding for the HPPD FMP37; assay: Glasshouse spray trial, herbicidal damage; assay type: in vivo, Nicotiana tabacum; conditions: line 113, individual plants, 100 gAl/ha, 7DAT
Experimental: (§1) T0 Tobacco plants containing either the gene from Arabidopsis coding for HPPD or the gene FMP37e from Blepharisma japonicum coding for FMP37 HPPD, mentioned above (Example 3), were transferred to the glasshouse (28/20° C.), to develop further and produce seeds. Those seeds were harvested and put on soil (ED73 mixed with sand and osmocote Pro) to germinate in the glasshouse (28/20° C.). Three to four weeks later, plantlets were transferred to single pots containing the soil mentioned above. Two weeks later, plants of a size 4-6 cm diameter were sprayed with either • tembotrione at 100 Al/ha prepared from a WP20 (wettable powder 20%) formulation supplemented with ammonium sulfate and methyl ester raps oil, or • isoxaflutole at 100 Al/ha prepared from a WP20 formulation supplemented with ammonium sulfate and methyl ester raps oil, or • bicyclopyrone at 100 gAl/ha prepared from a WP20 formulation supplemented with ammonium sulfate and methyl ester raps oil, or • “blind formulation” made from a WP20 formulation without active ingredient (Al) supplemented with ammonium sulfate and methyl ester raps oil, and were then transferred to a growth chamber with adequate light conditions (20000Lux).

[2] = system: T1 tobacco plants with Arabidopsis HPPD; assay: Glasshouse spray trial, herbicidal damage; assay type: in vivo, Nicotiana tabacum; conditions: 100 gAl/ha, 7DAT
Experimental: as §1

[3] = system: tobacco plants with FMP37t-h, PAT and 2mEPSPS (pFCO112); assay: Glasshouse trial of tobacco with three tolerance genes; assay type: in vivo, Nicotiana tobacum; conditions: 9 DAT
Experimental: A binary vector for tobacco transformation is, for example, constructed with the CaMV35 promoter driving the expression of the gene FMP37t-h (SEQ ID No. 15), with a codon usage optimized for the expression in dicotyledoneous plants and at its 5′ extremity was added a sequence coding for an OTP, and further upstream a sequence TEV (Tobacco etch virus) to improve the stability of the mRNA in plants followed by the CaMV35S terminator. The nucleotide sequence of the gene FMP37t-h is given in SEQ ID No. 15. Additionally, the transformation vector also contains a PAT gene cassette in which the gene is driven by a CaVM35S promoter and followed by a CaMV35S terminator for glufosinate based selection during the transformation process and a 2mEPSPS gene cassette in which the gene is driven by an histone promoter from Arabidopsis to confer tolerance to the herbicide glyphosate to the transformed plants (see FIG. 3 H). The binary vector was called pFCO112. The above vector was used to transform leaf disks obtained from Nicotiana tobacum plants, according to Example 3.
Transgenic tobacco plants were transferred to the greenhouse and treated with glyphosate at a rate of 1121 g Al/ha. Seeds were produced from such tolerant tobacco plants and harvested. These seeds were put on soil to germinate in the glasshouse. Three to four weeks later, 50 plantlets per event were transferred to single pots. Two weeks later, plants of a size 4-6 cm were sprayed either with:
[…] […] Non-transgenic tobacco plants were completely killed by treatment using one or more of the above herbicides.

[4] = system: T0 rice plants with FMP37e; assay: Rice glasshouse trial, response to tembotrione; assay type: in vivo; conditions: 100 g AI/ha, 7 DAT
Experimental: (§2) T0 rooted plantlets (either selected on phosphinothricin alone or on phosphinothricin supplemented with tembotrione) were transferred to soil in the glasshouse. Following an acclimation period, sufficiently grown plants were treated with the different HPPD inhibitor herbicides. As an example, T0 plants were sprayed with tembotrione of formulation type WP20 100 g Al/ha supplemented with ammonium sulfate and methyl ester raps oil. Seven days after the spray application, the symptoms due to the application of the herbicide were evaluated and compared the symptoms observed on wild type plants submitted to the same treatment.
(§3) The plants were classified in three categories based on the phenotype developed in response to the herbicide seven days after the treatment.

wild type rice plants = assay: Rice glasshouse trial, response to tembotrione; assay type: in vivo; conditions: 100 g AI/ha, 7 DAT
Experimental: as §2, §3

[5] = system: rice shoots transformed with FMP37e; assay: Bleaching of transformed rice shoots on MS/2 with tembotrione; assay type: in vivo; conditions: 2 weeks
Experimental: Rice transformation is achieved using methods well known in the art. Briefly, the Agrobacterium tumefaciens mediated transformation of rice was performed using immature embryos, from the restorer line 6G4317. Briefly, panicles from donor plants were harvested 8-12 days after pollination. The lemma of the immature seed was removed. Seeds were thereafter sterilized using a NaOCl based solution and Tween. The seeds were preinduced with acetylsalicylic acid. Agrobacterium tumefaciens cells were then co-cultivated with the preinduced seeds in presence of acetosyringone for 4 days at 24° C. in the dark. Thereafter, coleoptile from embryos were removed and washed, then put on a media supplemented with phosphinothricin for 3 weeks at 28° C. under a photoperiod rhythm of 16 hours. Then the growing calli were cut off from the embryos, and transferred to fresh media containing triacillin, phosphinothricin, L-proline and copper (II) sulfate.
For each callusline and per Tembotrione concentration, 3 shoots, and randomly isolated from different callus pieces, were transferred to MS/2 with Tembotrione. As a general rule, transfer of the shoots from regeneration medium to MS/2 occurred 9 weeks after calli had been put on regeneration medium.
Cultures were incubated at 26.5° C. (16 hrs. photoperiod) and evaluation of symptoms occurred 2 weeks later.
New developing leaves of the shoots transferred have been scored on the basis of bleaching and categorized in 3 groups:
a) no bleaching b) intermediate bleaching c) complete bleaching
Within the category ‘intermediate bleaching’ a distinction has been made between shoots having new leaves showing only very little bleaching symptoms and thus tending to green leaves, and shoots with new leaves almost completely bleached.

[6] = system: soybean events expressing the FMP37 HPPD protein; assay: Soybean greenhouse treatment with tembotrione; assay type: in vivo; conditions: 100 g Al/ha, eight events
Experimental: Plants containing the transgene were then sprayed with HPPD inhibitor herbicides, as for example with tembotrione at a rate of 100 g Al/ha. Ten days after the application the symptoms due to the application of the herbicide were evaluated and compared to the symptoms observed on a wild type plants under the same conditions.
Eight events expressing the FMP37 HPPD protein have been generated from the green shoots of above and were transferred to the greenhouse. Four weeks after acclimation, i.e. plants at a developmental stage of 3-4 internodes were treated with 100 g Al/ha tembotrione prepared from a WP 20 formulation supplemented with ammonium sulfate and methyl ester raps oil. Ten days after application, the symptoms caused by the application of the HPPD inhibitor herbicide were evaluated and compared to the symptoms observed on treated non-transgenic wild-type soybean plants.

CS(=O)(=O)c1ccc(C(=O)C2C(=O)CCCC2=O)c(Cl)c1COCC(F)(F)F [Tembotrione, 2-[2-chloro-4-(methylsulfonyl)-3-[(2,2,2,-tri-fluoroethoxy)methyl]benzoyl]-1,3-cyclo-hexanedione]
% injury [1]: 5% and 10% (2×) and 40% and 70%
% injury ([2]; line 252, individual plants): 40%
% injury ([2]; line 258, individual plants): 100%
% injury ([2]; line 327, individual plants): 40% and 50%
number of plants in Class I (no injuries) ([3]; line 634, 100 g AI/ha): 0
number of plants in Class II (injury: 10-40%) ([3]; line 634, 100 g AI/ha): 3
number of plants in Class III (injury: 41-100%) ([3]; line 634, 100 g AI/ha): 7
number of plants in Class I (no injuries) ([3]; line 713, 100 g AI/ha): 0
number of plants in Class II (injury: 10-40%) ([3]; line 713, 100 g AI/ha): 6
number of plants in Class III (injury: 41-100%) ([3]; line 713, 100 g AI/ha): 4
number of plants in Class I (no injuries) [4]: 1
number of plants in Class II (injury: 10-40%) [4]: 6
number of plants in Class III (injury: 41-100%) [4]: 16
number of plants in Class II (injury: 10-40%) (wild type rice plants): 0
N° of shoots completely bleached ([5]; 1 μM): 17
N° of shoots with intermediate bleaching ([5]; 1 μM): 24
N° of shoots completely bleached ([5]; 5 μM): 43
N° of shoots with intermediate bleaching ([5]; 5 μM): 17
events with bleaching like non-transgenic wild-type soybean plant [6]: two events
events with local transitory bleaching symptoms, recovered completely 7 days after application [6]: One other event
events with transitory light bleaching symptoms, recovered 14 days after application [6]: One event
events without any bleaching phenotype ([6]; ten days after application): Four of the eight events
